Measured values reported in US7259140B2, “Heparin-binding peptides and uses thereof” (Thomas Jefferson University, priority 2003, dated 2007).
Entries after “also recorded” stand apart in the source; their conditions may differ. Ends that are not written are not given here.

How the values were obtained:
[1] = tested on: anti-Factor Xa Activity of Unfractionated Heparin; test: Anti-Factor Xa assay: neutralization of unfractionated heparin in citrate or plasma in vitro; type: biochemical, human; settings: UFH 0.7 U/ml
How it was run: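 Chromogenic anti-Factor Xa kit run with UFH, enoxaparin (Lovenox) or danaparoid (Orgaran) in 0.32% citrate or citrated plasma from three volunteers. Heparin/ATIII complex formed, peptide added, then Factor Xa and dye substrate; absorbance at 405 nm, inversely proportional to remaining anti-Factor Xa activity.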

[2] = tested on: Anti-Factor Xa Activity of the Non-Heparin Glycosaminoglycan Orgaran ®; test: Anti-Factor Xa assay: neutralization of Orgaran in citrate or plasma in vitro; type: biochemical, human
Method: The ability of peptides such as (ARKKAAKA)3VLVLVLVL (SEQ ID NO:5) to neutralize the anti-Factor Xa activity of UFH and LMWH in vitro was tested using the Stachrom Heparin kit (Diagnostica Stago), a standard hematology laboratory assay used to measure the anti-Factor Xa activity of heparin. The assay was performed using the low molecular weight heparin enoxaparin sodium (Lovenox®, Aventis Pharmaceuticals, Inc.), unfractionated heparin (UFH), or the non-heparin glycosaminoglycan danaparoid sodium (Orgaran®, Organon Inc., West Orange, N.J.) in 0.32% citrate or in plasma anticoagulated with 0.32% citrate. Enoxaparin is commonly used clinically as a low molecular weight heparin (LMWH). Danaparoid is commonly used clinically as a non-heparin glycosaminoglycan anticoagulant. Currently, the only FDA approved drug to target UFH is protamine, which is not effective in vivo against LMWH or a non-heparin glycosaminoglycan such as danaparoid. Buffer and ATIII are added to form the heparin/ATIII complex, peptide is added, then Factor Xa, reporter dye substrate for Factor Xa activity, and stop solution, and the dye concentration is read at 405 nm. The absorbance of the dye increases with increasing Factor Xa activity, and thus is inversely proportional to the heparin (anti-Factor Xa activity) concentration. Peptides were tested in plasma obtained from three volunteers (A, B, and C). Platelet function inhibitors PG12 and theophylline were added to the blood immediately upon collection. […]

platelets = test: Platelet aggregation with aggregation-inducing agents; type: cell-based, human; settings: 12 μg/ml; Lovenox 0.5 U/ml; collagen, ADP, ristocetin, epinephrine, SFFLRN, A23187
How it was run: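 Plasma from six donors, platelets equilibrated 1 min before agonist (collagen, ADP, ristocetin, epinephrine, SFFLRN, A23187; several concentrations each). Heparin-binding peptides at 12 μg/ml, Lovenox at 0.5 U/ml, protamine also tested. Percent aggregation monitored over 5 min.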

[3] = tested on: unfractionated heparin (thrombin-induced clot formation); test: Thrombin neutralization assay: clotting time of citrated plasma in the presence of unfractionated heparin; type: biochemical, human; settings: UFH 0.5 IU/ml
Method: It was determined whether heparin-binding peptides of the invention can neutralize unfractionated heparin using the thrombin neutralization assay. The six peptides that were synthesized and used in this Example are: (ARKKAAKA)3VLVLVLVL (SEQ ID NO:5); (ARKKAAKA)(A16)(ARKKAAKA) (SEQ ID NO:30); (ARKKAAKA)4 (SEQ ID NO:31); (AKKARA)6 (SEQ ID NO:32); (ARKKAAKA)3(ARKKCAKA) (SEQ ID NO:33); and cyclized C(ARKKAAKA)4C (SEQ ID NO:34); Citrated plasma was pipetted into a glass tube. Thrombin was added, the tube was manually rotated, and clotting time was determined by observation of clot formation. Normal clotting time is 19-22 seconds.
As a control, to assess the effect of heparin on clot formation, unfractionated heparin was added to the plasma at 0.5 IU anti-thrombin activity/ml and then thrombin was added. Clotting time in the presence of heparin alone was greater than 3 minutes.
To test the effect of peptides, heparin and six peptides at the concentrations indicated in Table 4 were added to the plasma, the mixture was allowed to stand at room temperature for 1 minute, and thrombin was added. The time for the clot to form is indicated. Experiments were performed using plasma from three volunteers—A, B, and C.

[4] = Hemodynamic effects in rats without prior Lovenox; settings: 2 mg per rat, no Lovenox
[5] = Hemodynamic effects in rats after administration of the LMWH Lovenox; settings: in the presence of LMWH Lovenox
Method: Next, experiments were performed in which the animals were treated with the peptides after the administration of the LMWH Lovenox®, as would happen in the clinical situation, because binding of peptides to LMWH would be expected to reduce the effects of the peptides on hemodynamic function.

## ARKKAAKAARKKAAKAARKKAAKAARKKAAKA [(ARKKAAKA)4]
[1]; 1 μg/ml Peptide, A Plasma
  Unfractionated Heparin Neutralized: 0.069 ± 0.023 U/ml
[1]; 1 μg/ml Peptide, B Plasma
  Unfractionated Heparin Neutralized: 0.124 ± 0.047 U/ml
[1]; 1 μg/ml Peptide, C Plasma
  Unfractionated Heparin Neutralized: 0.076 ± 0.014 U/ml
[1]; 1 μg/ml Peptide, Citrate
  Unfractionated Heparin Neutralized: 0.056 ± 0.019 U/ml
[1]; 6 μg/ml Peptide, A Plasma
  Unfractionated Heparin Neutralized: 0.334 ± 0.016 U/ml
[1]; 6 μg/ml Peptide, B Plasma
  Unfractionated Heparin Neutralized: 0.361 ± 0.038 U/ml
[1]; 6 μg/ml Peptide, C Plasma
  Unfractionated Heparin Neutralized: 0.397 ± 0.004 U/ml
[1]; 6 μg/ml Peptide, Citrate
  Unfractionated Heparin Neutralized: 0.423 ± 0.014 U/ml
[1]; 12 μg/ml Peptide, A Plasma
  Unfractionated Heparin Neutralized: 0.412 ± 0.010 U/ml
[1]; 12 μg/ml Peptide, B Plasma
  Unfractionated Heparin Neutralized: 0.395 ± 0.012 U/ml
[1]; 12 μg/ml Peptide, C Plasma
  Unfractionated Heparin Neutralized: 0.396 ± 0.018 U/ml
[1]; 12 μg/ml Peptide, Citrate
  Unfractionated Heparin Neutralized: 0.370 ± 0.020 U/ml
[1]; 60 μg/ml Peptide, A Plasma
  Unfractionated Heparin Neutralized: 0.389 ± 0.018 U/ml
[1]; 60 μg/ml Peptide, B Plasma
  Unfractionated Heparin Neutralized: 0.442 ± 0.056 U/ml
[1]; 60 μg/ml Peptide, C Plasma
  Unfractionated Heparin Neutralized: 0.401 ± 0.012 U/ml
[1]; 60 μg/ml Peptide, Citrate
  Unfractionated Heparin Neutralized: 0.378 ± 0.023 U/ml
[1]; 120 μg/ml Peptide, A Plasma
  Unfractionated Heparin Neutralized: 0.364 ± 0.032 U/ml
[1]; 120 μg/ml Peptide, B Plasma
  Unfractionated Heparin Neutralized: 0.392 ± 0.075 U/ml
[1]; 120 μg/ml Peptide, C Plasma
  Unfractionated Heparin Neutralized: 0.374 ± 0.020 U/ml
[1]; 120 μg/ml Peptide, Citrate
  Unfractionated Heparin Neutralized: 0.361 ± 0.028 U/ml
[2]; 1 μg/ml Peptide, A Plasma
  Orgaran Neutralized: 0.026 ± 0.021 U/ml
[2]; 1 μg/ml Peptide, B Plasma
  Orgaran Neutralized: 0.025 ± 0.009 U/ml
[2]; 1 μg/ml Peptide, C Plasma
  Orgaran Neutralized: 0.020 ± 0.012 U/ml
[2]; 1 μg/ml Peptide, Citrate
  Orgaran Neutralized: 0.021 ± 0.022 U/ml
[2]; 6 μg/ml Peptide, A Plasma
  Orgaran Neutralized: 0.061 ± 0.006 U/ml
[2]; 6 μg/ml Peptide, B Plasma
  Orgaran Neutralized: 0.057 ± 0.022 U/ml
[2]; 6 μg/ml Peptide, C Plasma
  Orgaran Neutralized: 0.074 ± 0.056 U/ml
[2]; 6 μg/ml Peptide, Citrate
  Orgaran Neutralized: 0.172 ± 0.028 U/ml
[2]; 12 μg/ml Peptide, A Plasma
  Orgaran Neutralized: 0.082 ± 0.012 U/ml
[2]; 12 μg/ml Peptide, B Plasma
  Orgaran Neutralized: 0.110 ± 0.021 U/ml
[2]; 12 μg/ml Peptide, C Plasma
  Orgaran Neutralized: 0.116 ± 0.021 U/ml
[2]; 12 μg/ml Peptide, Citrate
  Orgaran Neutralized: 0.178 ± 0.021 U/ml
[2]; 60 μg/ml Peptide, A Plasma
  Orgaran Neutralized: 0.211 ± 0.029 U/ml
[2]; 60 μg/ml Peptide, B Plasma
  Orgaran Neutralized: 0.192 ± 0.009 U/ml
[2]; 60 μg/ml Peptide, C Plasma
  Orgaran Neutralized: 0.182 ± 0.006 U/ml
[2]; 60 μg/ml Peptide, Citrate
  Orgaran Neutralized: 0.298 ± 0.044 U/ml
[2]; 120 μg/ml Peptide, A Plasma
  Orgaran Neutralized: 0.286 ± 0.040 U/ml
[2]; 120 μg/ml Peptide, B Plasma
  Orgaran Neutralized: 0.302 ± 0.012 U/ml
[2]; 120 μg/ml Peptide, C Plasma
  Orgaran Neutralized: 0.299 ± 0.024 U/ml
[2]; 120 μg/ml Peptide, Citrate
  Orgaran Neutralized: 0.366 ± 0.019 U/ml
platelets
  effect on platelet aggregation: no significant inhibition or enhancement of aggregation
[3]; 0.30 μg peptide/0.1 ml, plasma A
  Time for clot formation: 56.33 ± 4.92 s
[3]; 0.30 μg peptide/0.1 ml, plasma B
  Time for clot formation: 53.33 ± 1.25 s
[3]; 0.35 μg peptide/0.1 ml, plasma A
  Time for clot formation: 22.33 ± 0.47 s
[3]; 0.35 μg peptide/0.1 ml, plasma B
  Time for clot formation: 39.00 ± 5.35 s
[3]; 0.35 μg peptide/0.1 ml, plasma C
  Time for clot formation: 32.67 ± 0.47 s
[3]; 0.40 μg peptide/0.1 ml, plasma A
  Time for clot formation: 18.67 ± 0.94 s
[3]; 0.40 μg peptide/0.1 ml, plasma B
  Time for clot formation: 26.30 ± 1.25 s
[3]; 0.40 μg peptide/0.1 ml, plasma C
  Time for clot formation: 22.67 ± 1.25 s
[3]; 0.50 μg peptide/0.1 ml, plasma A
  Time for clot formation: 19.67 ± 1.25 s
[3]; 0.50 μg peptide/0.1 ml, plasma B
  Time for clot formation: 24.00 ± 0.82 s
[3]; 0.50 μg peptide/0.1 ml, plasma C
  Time for clot formation: 20.67 ± 0.94 s
[4]
  time to nadir of blood pressure: 2 min
[5]
  effect on blood pressure and heart rate / toxicity: no significant effect on blood pressure and heart rate; also recorded: All four rats tested showed no response
